Tested on: CVD (CHD or stroke)
Assay: CARE: SNP by pravastatin treatment interaction, logistic regression (synergy index), CVD endpoint
Type: in vivo, human
Details: CARE
Description: CARE was a secondary prevention trial and WOSCOPS was a primary prevention trial.
The CHD endpoint was defined in the analyses herein of CARE as a composite endpoint of fatal CHD, definite non-fatal MI, or revascularization, and was defined in the analyses herein of WOSCOPS as a composite endpoint of death from CHD, nonfatal MI, or revascularization. In both the CARE and WOSCOPS analyses herein, the CVD endpoint was defined as a composite endpoint of CHD or stroke. […] Revascularization, which can include percutaneous transluminal coronary angioplasty (PTCA), stent placement, and coronary artery bypass graft (CABG), are medical interventions that indicate the presence of CHD.
Cohort and case-only study designs were used to identify SNPs associated with response to statin treatment.
For each SNP, a logistic regression model having treatment status as the dependent variable and SNP as the independent predictor variable was performed, with terms for age, sex and race included in the model as covariates. The anti-log of the regression coefficient corresponding to the SNP is an estimate of the synergy index (SI) (Davis et al., “Imputing gene-treatment interactions when the genotype distribution is unknown using case-only and putative placebo analyses-a new method for the Genetics of Hypertension Associated Treatment (GenHAT) study”, Statistics in Medicine 23: (2004), pages 2413-2427). The SI is a ratio of odds ratios: for example in the CARE and WOSCOPS studies, the SI represents the factor by which the odds-ratio of statin treatment, compared with placebo, among major homozygous individuals is multiplied by in order to obtain the odds-ratio of treatment vs. placebo among heterozygous individuals; and multiplied by a second time to obtain the odds-ratio of treatment vs. placebo in minor homozygous individuals. […] In a randomized clinical trial, genotype and treatment are independent by design.

For `CC[C@H](C)C(=O)O[C@H]1C[C@H](O)C=C2C=C[C@H](C)[C@H](CC[C@@H](O)C[C@@H](O)CC(=O)O)[C@H]21` [Pravastatin, pravastatin], the “OR (synergy index, SNP x pravastatin treatment interaction)” value (rs152707 allele A, model ADD, Imputed) was 0.684, the “OR (synergy index, SNP x pravastatin treatment interaction)” value (rs152712 allele C, model ADD, Genotyped) was 0.6783 and the “OR (SNP x pravastatin interaction)” value (rs208026 allele A, DOM model, Genotyped) was 1.457. The “OR (SNP x pravastatin interaction)” value (rs208029 allele T, DOM model, Imputed) was 1.41, the “OR (SNP x pravastatin interaction)” value (rs208757 allele G, DOM model, Imputed) was 1.423 and the “OR (SNP x pravastatin interaction)” value (rs229775 allele A, REC model, Imputed) was 0.3933. The “OR (SNP x pravastatin interaction)” value (rs229815 allele T, REC model, Imputed) was 0.4053, the “OR (SNP x pravastatin interaction)” value (rs229829 allele C, REC model, Imputed) was 0.5066 and the “OR (SNP x pravastatin interaction)” value (rs229831 allele A, REC model, Imputed) was 0.3945. The “OR (SNP x pravastatin interaction)” value (rs238252 allele G, ADD model, Imputed) was 1.66, the “OR (SNP x pravastatin interaction)” value (rs238252 allele G, DOM model, Imputed) was 1.848 and the “OR (synergy index, SNP x pravastatin treatment interaction)” value (rs1444741 allele A, model DOM, Imputed) was 0.6595. The “OR (synergy index, SNP x pravastatin treatment interaction)” value (rs1449916 allele C, model DOM, Imputed) was 0.5892, the “OR (synergy index, SNP x pravastatin treatment interaction)” value (rs1459523 allele A, model ADD, Imputed) was 1.366 and the “OR (synergy index, SNP x pravastatin treatment interaction)” value (rs1476714 allele A, model DOM, Imputed) was 0.6618. For the same molecule, the “OR (synergy index, SNP x pravastatin treatment interaction)” value (rs1486723 allele C, model REC, Imputed) was 0.4458, the “OR (synergy index, SNP x pravastatin treatment interaction)” value (rs1495375 allele A, model ADD, Imputed) was 0.741 and the “OR (synergy index, SNP x pravastatin treatment interaction)” value (rs1495375 allele A, model DOM, Imputed) was 0.6085. The “OR (synergy index, SNP x pravastatin treatment interaction)” value (rs1495381 allele T, model REC, Imputed) was 1.776, the “OR (synergy index, SNP x pravastatin treatment interaction)” value (rs1498061 allele C, model ADD, Imputed) was 0.4939 and the “OR (synergy index, SNP x pravastatin treatment interaction)” value (rs1498992 allele G, model DOM, Imputed) was 0.5981. The “OR (synergy index, SNP x pravastatin treatment interaction)” value (rs1499001 allele T, model DOM, Imputed) was 0.5667, the “OR (synergy index, SNP x pravastatin treatment interaction)” value (rs1512988 allele A, model ADD, Imputed) was 0.7274 and the “OR (synergy index, SNP x pravastatin treatment interaction)” value (rs1512988 allele A, model DOM, Imputed) was 0.6077. The “OR (synergy index, SNP x pravastatin treatment interaction)” value (rs1512989 allele T, model ADD, Imputed) was 0.7274, the “OR (synergy index, SNP x pravastatin treatment interaction)” value (rs1512989 allele T, model DOM, Imputed) was 0.6077 and the “OR (synergy index, SNP x pravastatin treatment interaction)” value (rs1512991 allele T, model ADD, Imputed) was 0.7286. For the same molecule, the “OR (synergy index, SNP x pravastatin treatment interaction)” value (rs1512991 allele T, model DOM, Imputed) was 0.6184, the “OR (synergy index, SNP x pravastatin treatment interaction)” value (rs1524306 allele C, model ADD, Imputed) was 1.366 and the “OR (synergy index, SNP x pravastatin treatment interaction)” value (rs1524310 allele G, model ADD, Imputed) was 1.366. The “OR (synergy index, SNP x pravastatin treatment interaction)” value (rs1527059 allele A, model DOM, Imputed) was 0.5689, the “OR (synergy index, SNP x pravastatin treatment interaction)” value (rs1535866 allele G, model DOM, Imputed) was 1.391 and the “OR (synergy index, SNP x pravastatin treatment interaction)” value (rs1567740 allele T, model ADD, Imputed) was 0.7274. For the same molecule, the “OR (synergy index, SNP x pravastatin treatment interaction)” value (rs1567740 allele T, model DOM, Imputed) was 0.6032, the “OR (synergy index, SNP x pravastatin treatment interaction)” value (rs1572573 allele A, model DOM, Imputed) was 1.748 and the “OR (synergy index, SNP x pravastatin treatment interaction)” value (rs1577497 allele C, model REC, Imputed) was 0.4912. The “OR (synergy index, SNP x pravastatin treatment interaction)” value (rs1581514 allele T, model ADD, Imputed) was 1.353, the “OR (synergy index, SNP x pravastatin treatment interaction)” value (rs1582321 allele T, model DOM, Imputed) was 0.5814 and the “OR (synergy index, SNP x pravastatin treatment interaction)” value (rs1582322 allele A, model DOM, Imputed) was 0.5859. The “OR (synergy index, SNP x pravastatin treatment interaction)” value (rs1582323 allele A, model DOM, Imputed) was 0.5825, the “OR (synergy index, SNP x pravastatin treatment interaction)” value (rs1592485 allele C, model DOM, Imputed) was 0.5835 and the “OR (synergy index, SNP x pravastatin treatment interaction)” value (rs1600954 allele T, model ADD, Imputed) was 1.379. The “OR (synergy index, SNP x pravastatin treatment interaction)” value (rs1705261 allele A, model REC, Imputed) was 1.775, the “OR (synergy index, SNP x pravastatin treatment interaction)” value (rs1832222 allele G, model DOM, Imputed) was 1.612 and the “OR (synergy index, SNP x pravastatin treatment interaction)” value (rs1861327 allele G, model DOM, Imputed) was 0.5814. For the same molecule, the “OR (synergy index, SNP x pravastatin treatment interaction)” value (rs1868581 allele G, model ADD, Imputed) was 1.366, the “OR (synergy index, SNP x pravastatin treatment interaction)” value (rs1874313 allele A, model ADD, Imputed) was 0.7419 and the “OR (synergy index, SNP x pravastatin treatment interaction)” value (rs1874313 allele A, model DOM, Imputed) was 0.615. For the same molecule, the “OR (SNP x pravastatin interaction)” value (rs1876409 allele C, DOM model, Imputed) was 0.6151, the “OR (SNP x pravastatin interaction)” value (rs1913201 allele G, ADD model, Imputed) was 0.7218 and the “OR (SNP x pravastatin interaction)” value (rs1913201 allele G, DOM model, Imputed) was 0.6464. The “OR (SNP x pravastatin interaction)” value (rs1936871 allele G, DOM model, Genotyped) was 0.571, the “OR (SNP x pravastatin interaction)” value (rs1961157 allele T, REC model, Imputed) was 0.6068 and the “OR (SNP x pravastatin interaction)” value (rs1987179 allele T, ADD model, Imputed) was 0.7138. For the same molecule, the “OR (SNP x pravastatin interaction)” value (rs1987179 allele T, DOM model, Imputed) was 0.6634, the “OR (SNP x pravastatin interaction)” value (rs1990023 allele T, DOM model, Imputed) was 0.6462 and the “OR (SNP x pravastatin interaction)” value (rs1995025 allele C, DOM model, Imputed) was 1.608. For the same molecule, the “OR (SNP x pravastatin interaction)” value (rs2016194 allele G, DOM model, Imputed) was 0.6626, the “OR (SNP x pravastatin interaction)” value (rs2023651 allele T, ADD model, Imputed) was 0.682 and the “OR (SNP x pravastatin interaction)” value (rs2024902 allele A, ADD model, Imputed) was 1.998. For the same molecule, the “OR (SNP x pravastatin interaction)” value (rs2024902 allele A, DOM model, Imputed) was 2.076, the “OR (SNP x pravastatin interaction)” value (rs2025107 allele A, DOM model, Imputed) was 1.856 and the “OR (SNP x pravastatin interaction)” value (rs2025108 allele T, DOM model, Imputed) was 1.856. The “OR (SNP x pravastatin interaction)” value (rs2052428 allele C, DOM model, Imputed) was 0.5903, the “OR (SNP x pravastatin interaction)” value (rs2053230 allele C, ADD model, Imputed) was 0.5414 and the “OR (SNP x pravastatin interaction)” value (rs2062448 allele T, DOM model, Imputed) was 0.5462. For the same molecule, the “OR (SNP x pravastatin interaction)” value (rs2063420 allele C, REC model, Imputed) was 1.755, the “OR (SNP x pravastatin interaction)” value (rs2063591 allele C, ADD model, Imputed) was 0.7519 and the “OR (SNP x pravastatin interaction)” value (rs2063591 allele C, DOM model, Imputed) was 0.6237. For the same molecule, the “OR (SNP x pravastatin interaction)” value (rs2095586 allele A, DOM model, Imputed) was 1.655, the “OR (SNP x pravastatin interaction)” value (rs2095606 allele A, DOM model, Imputed) was 0.5466 and the “OR (SNP x pravastatin interaction)” value (rs2102374 allele A, ADD model, Imputed) was 0.6269. For the same molecule, the “OR (SNP x pravastatin interaction)” value (rs2102374 allele A, DOM model, Imputed) was 0.5989, the “OR (SNP x pravastatin interaction)” value (rs2108426 allele C, DOM model, Imputed) was 0.6626 and the “OR (SNP x pravastatin interaction)” value (rs2110664 allele A, DOM model, Imputed) was 1.429.
